Experimental data: ChEMBL document CHEMBL5727262, “Tricyclic compound and JAK inhibitor” (2019)

Columns and labels:
[1] = biological target: Non-receptor tyrosine-protein kinase TYK2 (Homo sapiens, UniProt P29597); assay: (§1) Enzyme Assay: The JAK inhibitory activities of compounds of the present invention were measured.The enzymes (JAK1, JAK2, JAK3 and Tyk2) were purchased from Carna Biosciences, Inc.As the substrate for the enzymes (hereinafter referred to as the substrate), LANCE Ultra ULight-JAK-1 (Tyr1023) Peptide (manufactured by PerkinElmer Co., Ltd.) was used.As the antibody for detecting phosphorylation of the substrate, LANCE Ultra Europium-anti-phospho tyrosine antibody (PT66) (manufactured by PerkinElmer Co., Ltd.) was used.The other reagents are purchased from the following suppliers.Adenosine triphosphate (ATP): Sigma-Aldrich4-(2-Hydroxyethyl)-1-piperazineethanesulfonic acid (HEPES): DOJINDO LABORATORIESGlycol ether diamine tetraacetic acid (EGTA): DOJINDO LABORATORIESMagnesium chloride (MgCl2): Wako Pure Chemical Industries, Ltd.Dithiothreitol (DTT): Wako Pure Chemical Industries, Ltd.Tween 20: Sigma-AldrichEthylenediaminetetraacetic acid (EDTA): DOJINDO LABORATORIESThe compounds of the present invention, the enzymes (JAK1, JAK2, JAK3 and Tyk2), the substrate and ATP were used for the assays after diluted with the assay buffer.The composition of the assay buffer is given below.HEPES (pH7.5): 50 mMEGTA: 1 mMMgCl2: 10 mMDTT: 2 mMTween 20: 0.01% (wt/wt)Dilutions were made at such concentrations and dispensed on a well plate, which will be described later, in such volumes that the following final concentrations would be achieved on the well plate. The enzyme concentrations and the ATP concentrations in the respective enzyme (JAK1, JAK2, JAK3 and Tyk2) assays were as follows.JAK1 enzyme assay; the enzyme concentration was 0.5 μg/mL, and the ATP concentration was 70 μM.JAK2 enzyme assay; the enzyme concentration was 0.013 μg/mL, and the ATP concentration was 10 μM.JAK3 enzyme assay; the enzyme concentration was 0.020 μg/mL, and the ATP concentration was 3 μM.Tyk2 enzyme assay; the enzyme concentration was 0.25 μg/mL and the ATP concentration was 20 μM.The concentration of the substrate for the enzymes was 25 nM.The concentration of EDTA was 15 mM.The concentration of PT66 was 2 nM.
[2] = biological target: Tyrosine-protein kinase JAK1 (Homo sapiens, UniProt P23458); assay: as §1
[3] = biological target: T1, Tyrosine-protein kinase JAK3 (Homo sapiens, UniProt P52333); assay: as §1
T1 sequence (P52333 whole entry): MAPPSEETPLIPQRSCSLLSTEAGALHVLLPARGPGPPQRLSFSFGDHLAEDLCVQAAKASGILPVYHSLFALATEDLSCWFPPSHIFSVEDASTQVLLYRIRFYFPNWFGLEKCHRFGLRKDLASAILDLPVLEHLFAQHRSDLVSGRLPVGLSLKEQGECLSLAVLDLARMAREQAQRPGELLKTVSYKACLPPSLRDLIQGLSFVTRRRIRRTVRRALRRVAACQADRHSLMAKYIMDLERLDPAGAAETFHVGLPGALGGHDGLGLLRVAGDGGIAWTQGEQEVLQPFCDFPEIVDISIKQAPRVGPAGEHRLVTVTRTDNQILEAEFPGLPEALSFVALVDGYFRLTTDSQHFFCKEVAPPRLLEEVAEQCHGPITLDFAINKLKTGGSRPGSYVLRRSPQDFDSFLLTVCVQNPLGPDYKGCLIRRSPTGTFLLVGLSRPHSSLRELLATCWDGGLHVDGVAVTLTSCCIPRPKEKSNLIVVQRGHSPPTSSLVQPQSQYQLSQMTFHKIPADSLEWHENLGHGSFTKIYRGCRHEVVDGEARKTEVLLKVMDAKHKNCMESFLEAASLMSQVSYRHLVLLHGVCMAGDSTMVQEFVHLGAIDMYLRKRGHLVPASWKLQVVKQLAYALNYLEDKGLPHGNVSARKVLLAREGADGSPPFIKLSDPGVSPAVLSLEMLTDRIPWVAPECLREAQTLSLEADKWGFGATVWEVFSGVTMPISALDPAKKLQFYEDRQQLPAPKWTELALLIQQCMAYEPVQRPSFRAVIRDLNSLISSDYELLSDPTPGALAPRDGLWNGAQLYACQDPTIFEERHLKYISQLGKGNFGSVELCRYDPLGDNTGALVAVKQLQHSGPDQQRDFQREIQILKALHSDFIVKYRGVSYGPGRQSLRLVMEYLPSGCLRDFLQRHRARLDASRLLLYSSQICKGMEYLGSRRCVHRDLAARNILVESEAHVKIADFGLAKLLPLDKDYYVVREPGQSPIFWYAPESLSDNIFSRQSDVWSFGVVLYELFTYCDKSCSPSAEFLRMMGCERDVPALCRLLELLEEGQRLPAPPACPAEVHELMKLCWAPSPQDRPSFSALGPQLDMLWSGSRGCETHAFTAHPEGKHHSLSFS

[4] = biological target: Tyrosine-protein kinase JAK2 (Homo sapiens, UniProt O60674); assay: as §1, with “plate.” for “plate. The enzyme concentrations and the ATP concentrations in the respective enzyme (JAK1, JAK2, JAK3 and Tyk2) assays were as follows.JAK1 enzyme assay; the enzyme concentration was 0.5 μg/mL, and the ATP concentration was 70 μM.JAK2 enzyme assay; the enzyme concentration was 0.013 μg/mL, and the ATP concentration was 10 μM.JAK3 enzyme assay; the enzyme concentration was 0.020 μg/mL, and the ATP concentration was 3 μM.Tyk2 enzyme assay; the enzyme concentration was 0.25 μg/mL and the ATP concentration was 20 μM.The concentration of the substrate for the enzymes was 25 nM.The concentration of EDTA was 15 mM.The concentration of PT66 was 2 nM.”
Chain of Tyrosine-protein kinase JAK2 (O60674 whole entry): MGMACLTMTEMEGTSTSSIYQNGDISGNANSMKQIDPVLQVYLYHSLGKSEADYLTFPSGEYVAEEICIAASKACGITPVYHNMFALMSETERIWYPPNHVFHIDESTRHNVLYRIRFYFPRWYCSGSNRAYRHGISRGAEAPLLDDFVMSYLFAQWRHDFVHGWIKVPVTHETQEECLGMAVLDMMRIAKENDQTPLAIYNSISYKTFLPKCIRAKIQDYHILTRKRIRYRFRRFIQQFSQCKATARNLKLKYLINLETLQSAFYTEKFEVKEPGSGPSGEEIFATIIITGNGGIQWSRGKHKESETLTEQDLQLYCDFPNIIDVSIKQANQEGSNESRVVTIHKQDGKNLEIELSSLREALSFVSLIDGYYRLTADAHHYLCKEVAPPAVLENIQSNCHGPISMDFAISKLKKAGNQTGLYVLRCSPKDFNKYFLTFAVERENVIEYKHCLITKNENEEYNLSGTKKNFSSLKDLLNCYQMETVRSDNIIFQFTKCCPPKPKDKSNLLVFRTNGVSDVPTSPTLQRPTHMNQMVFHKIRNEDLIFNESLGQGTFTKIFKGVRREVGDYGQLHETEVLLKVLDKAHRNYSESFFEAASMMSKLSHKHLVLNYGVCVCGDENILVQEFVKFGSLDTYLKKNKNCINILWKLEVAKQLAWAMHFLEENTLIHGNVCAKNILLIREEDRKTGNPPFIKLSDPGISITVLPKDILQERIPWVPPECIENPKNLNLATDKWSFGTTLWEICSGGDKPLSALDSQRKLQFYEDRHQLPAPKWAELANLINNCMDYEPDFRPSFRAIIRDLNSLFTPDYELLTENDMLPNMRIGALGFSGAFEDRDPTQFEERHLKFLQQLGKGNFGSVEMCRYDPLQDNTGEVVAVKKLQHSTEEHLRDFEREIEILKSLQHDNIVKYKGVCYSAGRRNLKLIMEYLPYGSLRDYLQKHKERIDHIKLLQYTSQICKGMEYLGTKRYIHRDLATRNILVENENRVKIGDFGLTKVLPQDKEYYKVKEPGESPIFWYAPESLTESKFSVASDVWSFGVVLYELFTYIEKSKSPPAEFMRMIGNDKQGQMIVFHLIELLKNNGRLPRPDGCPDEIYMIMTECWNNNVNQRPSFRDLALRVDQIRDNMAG

Chain of Non-receptor tyrosine-protein kinase TYK2 (P29597 whole entry): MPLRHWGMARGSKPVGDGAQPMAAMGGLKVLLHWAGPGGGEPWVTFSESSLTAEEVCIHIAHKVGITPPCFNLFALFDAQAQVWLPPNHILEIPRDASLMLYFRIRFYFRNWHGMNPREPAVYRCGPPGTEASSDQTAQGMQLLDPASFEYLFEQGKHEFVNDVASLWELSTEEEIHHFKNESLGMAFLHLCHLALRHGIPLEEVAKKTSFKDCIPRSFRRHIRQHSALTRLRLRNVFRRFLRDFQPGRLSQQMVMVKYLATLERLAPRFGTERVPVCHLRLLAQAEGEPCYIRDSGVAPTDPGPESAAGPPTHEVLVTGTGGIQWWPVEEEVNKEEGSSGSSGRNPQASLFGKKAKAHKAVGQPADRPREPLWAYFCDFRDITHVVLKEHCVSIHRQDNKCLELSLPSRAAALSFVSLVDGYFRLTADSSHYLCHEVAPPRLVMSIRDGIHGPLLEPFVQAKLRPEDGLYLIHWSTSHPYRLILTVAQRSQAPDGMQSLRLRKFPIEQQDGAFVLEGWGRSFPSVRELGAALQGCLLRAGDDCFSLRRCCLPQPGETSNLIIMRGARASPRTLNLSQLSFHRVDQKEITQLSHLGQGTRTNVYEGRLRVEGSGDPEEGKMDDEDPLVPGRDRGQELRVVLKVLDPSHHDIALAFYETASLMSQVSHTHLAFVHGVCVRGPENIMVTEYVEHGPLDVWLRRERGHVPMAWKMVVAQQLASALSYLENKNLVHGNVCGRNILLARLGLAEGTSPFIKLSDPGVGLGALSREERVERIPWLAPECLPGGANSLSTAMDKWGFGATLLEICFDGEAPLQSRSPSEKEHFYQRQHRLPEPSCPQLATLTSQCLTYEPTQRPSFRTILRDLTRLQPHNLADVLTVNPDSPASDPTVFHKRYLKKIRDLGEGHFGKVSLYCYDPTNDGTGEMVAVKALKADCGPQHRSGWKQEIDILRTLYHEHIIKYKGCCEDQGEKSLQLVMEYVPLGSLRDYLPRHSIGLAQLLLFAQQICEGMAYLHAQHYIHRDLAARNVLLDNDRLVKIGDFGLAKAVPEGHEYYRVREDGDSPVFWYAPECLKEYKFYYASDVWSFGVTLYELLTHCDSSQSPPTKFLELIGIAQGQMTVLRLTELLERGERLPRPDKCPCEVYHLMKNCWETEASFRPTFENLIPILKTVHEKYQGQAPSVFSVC
Chain of Tyrosine-protein kinase JAK1 (P23458 whole entry): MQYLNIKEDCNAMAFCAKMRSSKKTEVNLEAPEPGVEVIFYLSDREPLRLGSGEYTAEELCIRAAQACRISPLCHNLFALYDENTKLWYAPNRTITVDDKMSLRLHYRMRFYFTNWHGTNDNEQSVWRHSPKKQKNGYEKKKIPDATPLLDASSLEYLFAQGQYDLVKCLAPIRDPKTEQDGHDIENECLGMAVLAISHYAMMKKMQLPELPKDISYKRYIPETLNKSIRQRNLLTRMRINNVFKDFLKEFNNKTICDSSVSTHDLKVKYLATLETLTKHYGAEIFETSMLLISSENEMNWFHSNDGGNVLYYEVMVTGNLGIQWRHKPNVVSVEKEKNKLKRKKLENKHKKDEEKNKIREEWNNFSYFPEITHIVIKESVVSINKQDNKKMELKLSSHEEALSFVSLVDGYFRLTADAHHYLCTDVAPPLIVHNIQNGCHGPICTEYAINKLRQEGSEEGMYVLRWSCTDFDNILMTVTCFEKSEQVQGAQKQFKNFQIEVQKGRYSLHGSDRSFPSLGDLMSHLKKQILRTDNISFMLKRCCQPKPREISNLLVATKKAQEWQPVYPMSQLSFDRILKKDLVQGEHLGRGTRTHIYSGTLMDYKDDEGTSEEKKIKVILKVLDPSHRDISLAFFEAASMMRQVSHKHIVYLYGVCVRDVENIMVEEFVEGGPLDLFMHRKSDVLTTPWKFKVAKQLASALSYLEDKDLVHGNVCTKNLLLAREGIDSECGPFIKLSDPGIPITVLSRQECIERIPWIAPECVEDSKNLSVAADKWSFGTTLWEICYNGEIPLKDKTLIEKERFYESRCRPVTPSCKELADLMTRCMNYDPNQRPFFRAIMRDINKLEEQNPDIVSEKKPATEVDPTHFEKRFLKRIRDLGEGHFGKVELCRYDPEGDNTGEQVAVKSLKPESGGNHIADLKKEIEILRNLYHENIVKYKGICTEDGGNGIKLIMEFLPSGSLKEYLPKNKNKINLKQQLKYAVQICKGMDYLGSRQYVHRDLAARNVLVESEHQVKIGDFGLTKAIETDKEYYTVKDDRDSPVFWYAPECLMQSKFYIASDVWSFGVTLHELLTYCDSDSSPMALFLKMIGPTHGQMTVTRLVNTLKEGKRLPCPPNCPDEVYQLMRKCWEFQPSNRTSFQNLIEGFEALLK

| IC50 [1] [nM] | IC50 [2] [nM] | IC50 [3] [nM] | IC50 [4] [nM] | Compound |
| --- | --- | --- | --- | --- |
| 18 | 1.7 | 10 | 5.1 | N#CC[C@@H](NCC1CCC(N2C=CC(=O)C3C=Nc4[nH]ccc4C32)CC1)C(F)(F)F (stereo partly drawn) |
| 11 | 0.74 | 5.1 | 2 | N#CC[C@H](OCC1CCC(N2C=CC(=O)C3C=Nc4[nH]ccc4C32)CC1)C(F)(F)F (stereo partly drawn) |

Further lines, the compound ahead of its results:

| Compound | IC50 [1] [nM] | IC50 [2] [nM] | IC50 [3] [nM] | IC50 [4] [nM] |
| --- | --- | --- | --- | --- |
| O=C1C=CN(C2CCC(COCC(F)(F)F)CC2)C2c3cc[nH]c3N=CC12 (stereo not drawn) | 10 | 0.59 | 2.7 |  |
| O=C1NC(=O)[C@@H](C2CCC(COCCC(F)(F)F)CC2)C2c3cc[nH]c3N=CC12 (stereo partly drawn) | 26 | 0.35 | 2.9 | 1.5 |
| O=C1C=CN(C2CCC(COCCC(F)(F)F)CC2)C2c3cc[nH]c3N=CC12 (stereo not drawn) | 19 | 0.68 | 2.5 | 1.6 |
| Cc1cnn(CC2CCC(N3C=CC(=O)C4C=Nc5[nH]ccc5C43)CC2)c1 (stereo not drawn) | 39 | 0.41 | 7.1 | 1.9 |
